Laboratory results as given in publication PMC2864793 (Molecular cell, 2010).
Numbering of substitutions follows the chain as printed. Names and notes keep the numbering of the source.

Tests used:
IRE1 [1] = biological target: T1, IRE1 (Saccharomyces cerevisiae, UniProt P32361, K985A); assay: RNase activation assay and DSS crosslinking at […] ADP; type: biochemical
T1 sequence (P32361 658-1115 K985A): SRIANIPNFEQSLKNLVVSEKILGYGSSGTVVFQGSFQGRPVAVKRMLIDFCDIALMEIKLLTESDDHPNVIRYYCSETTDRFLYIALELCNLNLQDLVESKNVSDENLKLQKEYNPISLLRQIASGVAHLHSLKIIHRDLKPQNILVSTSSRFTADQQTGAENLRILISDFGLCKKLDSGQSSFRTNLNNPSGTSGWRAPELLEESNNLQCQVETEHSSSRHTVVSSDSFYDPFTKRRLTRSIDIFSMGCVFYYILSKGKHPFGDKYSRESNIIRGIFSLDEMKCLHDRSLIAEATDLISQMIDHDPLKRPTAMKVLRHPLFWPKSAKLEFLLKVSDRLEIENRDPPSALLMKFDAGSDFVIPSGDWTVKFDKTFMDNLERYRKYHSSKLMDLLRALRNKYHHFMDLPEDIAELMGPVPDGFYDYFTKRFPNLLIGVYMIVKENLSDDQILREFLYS

IRE1 [2] = biological target: IRE1 (Saccharomyces cerevisiae, UniProt P32361); assay: co-crystal structure with quercetin; type: biochemical
Chain of IRE1 (Saccharomyces cerevisiae, UniProt P32361) (P32361 658-1115): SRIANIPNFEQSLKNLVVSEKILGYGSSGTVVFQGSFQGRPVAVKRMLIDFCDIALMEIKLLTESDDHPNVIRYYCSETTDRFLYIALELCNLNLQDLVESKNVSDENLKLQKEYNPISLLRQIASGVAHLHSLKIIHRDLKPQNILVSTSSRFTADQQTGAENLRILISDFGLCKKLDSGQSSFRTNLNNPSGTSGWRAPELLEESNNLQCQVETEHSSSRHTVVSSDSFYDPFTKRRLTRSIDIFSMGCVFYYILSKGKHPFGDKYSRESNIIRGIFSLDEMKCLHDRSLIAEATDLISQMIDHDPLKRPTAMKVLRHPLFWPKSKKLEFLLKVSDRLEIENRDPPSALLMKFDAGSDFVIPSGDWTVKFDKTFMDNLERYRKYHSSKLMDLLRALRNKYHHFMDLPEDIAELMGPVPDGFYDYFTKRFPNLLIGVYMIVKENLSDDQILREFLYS

IRE1 [3] = biological target: T2, IRE1 (Saccharomyces cerevisiae, UniProt P32361, D797A); assay: fluorescent RNase activation assay at […]; type: biochemical
T2 sequence (P32361 658-1115 D797A): T1 sequence (P32361 658-1115 K985A) with D140A, A328K

cross-linking = biological target: the molecule itself; assay: cross-linking
AUC = biological target: the molecule itself; assay: AUC

Nc1ncnc2c1ncn2[C@@H]1O[C@H](COP(=O)(O)OP(=O)(O)O)[C@@H](O)[C@H]1O [ADP]
RNase activation assay and DSS crosslinking at 2 mM ADP (IRE1 [1]): abolished by the Q-site mutant IRE1^K985A, although ADP-dependent crosslinking was still observed
EC50 (IRE1 [2]): ~40 µM

O=c1c(O)c(-c2ccc(O)c(O)c2)oc2cc(O)cc(O)c12 [quercetin]
fluorescent RNase activation assay at 25 μM (IRE1 [3]): addition of quercetin substantially activates its RNase (Figure 7C). Such activation was Q-site dependent

B1: IRE1^K985A (Q-site mutant of yeast IRE1 658–1115) (domain or fragment, UniProt P32361 658-1115, looked up)
chain: T1 sequence (P32361 658-1115 K985A)
modifications: purified as a phosphorylated protein (sites not given)
binding result (cross-linking): binds

B2: cytosolic portion of yeast IRE1 (residues 658–1115; inclusive of both the kinase and KEN domains) (domain or fragment, UniProt P32361 658-1115, looked up)
chain: T1 sequence (P32361 658-1115 K985A) with A328K
modifications: phosphorylated when purified from bacteria (sites not given for this construct)
stoichiometry N (AUC): 2
